Targets include MYLK3 (human) (UniProt Q32MK0); ERBB4 (human) (UniProt Q15303); MAP3K12 (human) (UniProt Q12852).
Common to all, as to assay: KINOMEscan competition binding

Chain of MAP3K12 (human) (Q12852 whole entry, looked up): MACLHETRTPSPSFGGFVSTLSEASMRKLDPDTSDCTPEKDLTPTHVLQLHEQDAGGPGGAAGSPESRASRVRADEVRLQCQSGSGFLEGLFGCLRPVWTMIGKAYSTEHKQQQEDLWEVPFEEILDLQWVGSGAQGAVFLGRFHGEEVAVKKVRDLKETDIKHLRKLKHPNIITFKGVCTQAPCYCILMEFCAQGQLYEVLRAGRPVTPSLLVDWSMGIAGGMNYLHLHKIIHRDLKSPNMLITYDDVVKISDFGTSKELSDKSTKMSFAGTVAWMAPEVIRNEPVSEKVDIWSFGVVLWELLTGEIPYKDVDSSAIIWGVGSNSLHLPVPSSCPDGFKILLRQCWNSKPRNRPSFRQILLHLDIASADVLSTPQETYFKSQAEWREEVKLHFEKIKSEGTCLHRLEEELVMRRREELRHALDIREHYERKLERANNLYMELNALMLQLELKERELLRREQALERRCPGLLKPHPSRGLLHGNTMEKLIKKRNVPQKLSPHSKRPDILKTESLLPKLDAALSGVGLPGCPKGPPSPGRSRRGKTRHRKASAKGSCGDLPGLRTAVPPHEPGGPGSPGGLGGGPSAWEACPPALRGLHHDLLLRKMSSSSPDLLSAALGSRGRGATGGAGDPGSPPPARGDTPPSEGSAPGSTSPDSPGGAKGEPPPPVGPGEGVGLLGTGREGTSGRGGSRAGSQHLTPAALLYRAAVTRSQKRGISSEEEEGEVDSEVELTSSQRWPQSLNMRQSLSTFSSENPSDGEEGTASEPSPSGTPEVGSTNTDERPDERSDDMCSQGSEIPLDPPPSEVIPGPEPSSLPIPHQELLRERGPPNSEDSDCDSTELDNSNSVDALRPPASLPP
Chain of ERBB4 (human) (Q15303 whole entry, looked up): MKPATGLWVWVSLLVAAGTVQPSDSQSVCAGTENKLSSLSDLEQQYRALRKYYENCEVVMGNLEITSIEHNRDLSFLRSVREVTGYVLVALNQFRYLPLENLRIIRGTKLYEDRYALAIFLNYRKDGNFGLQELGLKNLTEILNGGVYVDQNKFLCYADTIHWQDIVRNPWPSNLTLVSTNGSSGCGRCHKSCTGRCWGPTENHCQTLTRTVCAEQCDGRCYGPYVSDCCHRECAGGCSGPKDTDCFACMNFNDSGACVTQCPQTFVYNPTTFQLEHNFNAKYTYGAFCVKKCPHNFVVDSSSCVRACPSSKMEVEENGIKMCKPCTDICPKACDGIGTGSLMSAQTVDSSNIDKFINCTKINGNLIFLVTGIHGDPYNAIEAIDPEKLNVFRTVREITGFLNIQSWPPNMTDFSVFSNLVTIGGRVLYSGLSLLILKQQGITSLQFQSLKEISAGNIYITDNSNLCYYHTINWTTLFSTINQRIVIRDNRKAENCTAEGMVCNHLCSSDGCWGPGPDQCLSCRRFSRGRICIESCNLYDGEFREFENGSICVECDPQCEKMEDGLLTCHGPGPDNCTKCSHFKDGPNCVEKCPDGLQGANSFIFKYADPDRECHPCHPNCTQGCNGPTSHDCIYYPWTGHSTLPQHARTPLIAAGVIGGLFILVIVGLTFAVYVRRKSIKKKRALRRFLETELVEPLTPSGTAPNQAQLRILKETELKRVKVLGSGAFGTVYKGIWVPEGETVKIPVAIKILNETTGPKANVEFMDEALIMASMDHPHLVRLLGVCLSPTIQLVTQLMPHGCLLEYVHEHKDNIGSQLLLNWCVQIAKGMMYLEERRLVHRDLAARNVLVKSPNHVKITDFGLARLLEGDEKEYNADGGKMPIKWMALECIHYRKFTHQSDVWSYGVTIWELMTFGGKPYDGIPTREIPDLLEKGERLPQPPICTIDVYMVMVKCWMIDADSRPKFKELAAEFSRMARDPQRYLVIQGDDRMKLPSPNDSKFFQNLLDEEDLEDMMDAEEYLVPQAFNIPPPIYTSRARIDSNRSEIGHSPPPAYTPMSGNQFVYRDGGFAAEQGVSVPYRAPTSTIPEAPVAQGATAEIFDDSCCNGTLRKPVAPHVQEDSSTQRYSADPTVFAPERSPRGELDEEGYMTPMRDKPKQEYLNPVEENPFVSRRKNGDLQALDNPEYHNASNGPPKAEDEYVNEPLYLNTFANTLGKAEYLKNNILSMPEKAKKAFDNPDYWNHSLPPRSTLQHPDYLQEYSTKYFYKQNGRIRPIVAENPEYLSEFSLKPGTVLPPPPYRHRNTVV
Chain of MYLK3 (human) (Q32MK0 whole entry, looked up): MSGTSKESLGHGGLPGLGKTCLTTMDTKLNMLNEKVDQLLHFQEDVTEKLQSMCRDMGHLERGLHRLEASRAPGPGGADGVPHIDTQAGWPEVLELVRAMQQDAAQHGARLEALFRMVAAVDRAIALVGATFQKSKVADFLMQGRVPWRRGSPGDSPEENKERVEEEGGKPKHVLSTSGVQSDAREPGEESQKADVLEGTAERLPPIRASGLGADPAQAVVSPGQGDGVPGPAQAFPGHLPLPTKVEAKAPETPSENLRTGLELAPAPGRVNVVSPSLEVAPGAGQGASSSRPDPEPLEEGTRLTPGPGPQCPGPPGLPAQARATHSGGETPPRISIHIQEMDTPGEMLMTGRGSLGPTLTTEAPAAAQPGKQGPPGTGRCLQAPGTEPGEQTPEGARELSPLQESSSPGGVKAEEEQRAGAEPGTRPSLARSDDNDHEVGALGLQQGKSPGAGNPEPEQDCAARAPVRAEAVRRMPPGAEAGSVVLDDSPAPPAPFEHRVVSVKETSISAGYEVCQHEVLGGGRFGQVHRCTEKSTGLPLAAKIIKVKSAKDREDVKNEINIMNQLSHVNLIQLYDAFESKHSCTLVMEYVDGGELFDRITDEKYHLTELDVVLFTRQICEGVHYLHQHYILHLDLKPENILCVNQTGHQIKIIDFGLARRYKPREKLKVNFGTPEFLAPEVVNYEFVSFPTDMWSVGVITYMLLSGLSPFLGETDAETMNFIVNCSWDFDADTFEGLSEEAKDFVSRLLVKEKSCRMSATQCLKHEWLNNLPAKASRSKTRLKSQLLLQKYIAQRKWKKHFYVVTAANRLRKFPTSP

For the compound `CCOc1cc2ncc(C#N)c(Nc3ccc(F)c(Cl)c3)c2cc1NC(=O)/C=C/CN(C)C`, the Kd (in general, the constant that tells how readily two partners part at equilibrium) at MYLK3 (human) was over 10 µM.
In the case of `Nc1nc(Nc2ccc(S(N)(=O)=O)cc2)nn1C(=O)c1c(F)cccc1F`, the Kd on ERBB4 (human) and on MYLK3 (human) was over 10 µM throughout.
`COCC(=O)NC/C=C/c1ccc2ncnc(Nc3ccc(Oc4ccc(C)nc4)c(C)c3)c2c1`: the Kd on MAP3K12 (human) and at MYLK3 (human) was over 10 µM throughout.
For the compound `NC(=O)c1ccc(-c2nc(-c3ccccn3)c(-c3ccc4c(c3)OCO4)[nH]2)cc1`, the Kd at ERBB4 (human), on MAP3K12 (human) and on MYLK3 (human) was over 10 µM each time.
With `Oc1ccc(-c2nc(-c3ccc(F)cc3)c(-c3ccncc3)[nH]2)cc1`, the Kd at ERBB4 (human), on MAP3K12 (human) and on MYLK3 (human) was over 10 µM each time.

Source of the values: the kinase profiling compilation of Christmann-Franck et al. (2016).
